Data taken from publication PMC11310113, “Development of a UPLC-MS/MS method for quantifying KPT-335 (Verdinexor) in feline plasma for a study of PK” (Frontiers in Veterinary Science, 2024).
Like-named read-outs stand apart in the source and are kept apart here.

What was measured:
[1] = parameters: method as in PMID 30143046; details: day 14, cited from earlier work; for AUClast (AUC) / HL_Lambda_z / Tmax: dog (n = 4)
[2] = Stability of KPT-335 in cat plasma samples (UPLC-MS/MS); type: in vitro ADME; details: for recovery at 8 h: cat
Method: KPT-335 working solution was added to blank plasma, LQC, MQC, and HQC samples to investigate the room-temperature stability for 2 h, freeze–thaw stability with three times, autosampler stability for 24 h, and long-term stability of 20 days at −20°C. The stability of the stock solution for 20 days was also investigated.
Given that plasma is mostly neutral or alkaline, to optimize the stability of KPT-335 at room temperature and ensure the desirable result of the sample during the detection process, we carried out further experiments. There were four groups in the experiment. The first group was the normal preparation of the sample, and the second, third, and fourth groups were samples containing 0.01, 0.05, or 0.1% formic acid, respectively. All the samples were placed at room temperature for 12 h and then processed at the same time for detection.

[3] = Pharmacokinetic study of KPT-335 capsules in cats, single oral dose; type: in vivo, cat
Method: The recommended dose of KPT-335 for dogs is 1.5 mg/kg body weight (BW). To calculate the dose for cats, the average weight of the tested cats was substituted in the equation used for dogs, and the recommended dose was 2 mg/kg BW through body surface area (BSA) conversion ([20]). The formula was as follows: […]
where K is a constant determined for different animal species, such as a dog (11.0) and cat (8.7), and W is the BW (kg) of the animal. Km is approximated by the individual animal species taking the ratio between the mean weight (kg) and BSA (m^2), this value can be calculated using Formula 1. The average weight of the six tested cats was used in BW parameters, the dosage was calculated by Formula 2, and KPT-335 was weighed into capsules and administered to the animals. The cats were fasted for 12 h before and 2 h following drug administration. Potential adverse effects were monitored during the study. The capsules were administered orally as a single bolus to the back of the tongue via a dosing syringe, accompanied by 3–5 mL of water.
Samples of blood (1 mL) were collected from the brachial cephalic vein at 0.167, 0.333, 0.5, 0.75, 1, 1.5, 2, 4, 6, 8, 12, 24, 36, and 48 h pre- and post-oral dosing into an anticoagulant blood collection tube containig heparin sodium. Blood samples were centrifuged for 8 min at 1800 × g. The plasma layer was taken and divided evenly into two. The plasma samples were stored at −20°C until analysis (within 20 days of collection). For the pharmacokinetic parameters, the blood drug concentration-time data was analyzed by using WinNonlin software (version 8.1, United States). The elimination half-life (T1/2), the maximum plasma concentration of KPT-335 (Cmax), the time when the plasma concentration reached a maximum (Tmax), and the area under the concentration-time curve (AUC) were determined.

[4] = parameters: method as in PMID 24503695; details: healthy beagle dogs (n = 6), single dose 1.5 mg/kg BW p.o. after meals; cited from earlier work
[5] = average of all dogs (1.5 and 1.25 mg/kg BW)
[6] = cat (n = 6), 2 mg/kg BW p.o., single dose, fasted
[7] = plasma, cats, single oral dose of capsules 2 mg/kg BW

room temperature stability accuracy ([2]; acidic plasma (formic acid added), room temperature, 12 h): still acceptable
recovery at 8 h ([2]; plasma, 4°C, read-out: sample recovery): > 80%
recovery at 8 h ([2]; plasma, 8 h at room temperature, read-out: sample recovery rate): 59 to 67.5%
recovery at 8 h ([2]; plasma, light-protected, read-out: recovery rate of light-protected samples): 60.4 to 63.2%
accuracy of stable samples at room temperature ([2]; plasma containing 0.1% formic acid, room temperature, 12 h): more than 85%
room temperature stability accuracy ([2]; plasma, room temperature, 2 h, all concentrations): met the requirement of ±15%
room temperature stability accuracy ([2]; plasma, room temperature, 8 h): did not meet the requirement of ±15%
room temperature stability result ([2]; plasma, room temperature, 24 h): not within the requirement of ±15%
AUC_%Extrap_obs [3, 6]: 11.32 ± 6.56%
HL_Lambda_z [3, 6]: 5.16 ± 2.30 h
MRT last ([3]; plasma, po, cat (n = 6), 2 mg/kg BW p.o., single dose, fasted): 5.46 ± 2.14 h
k el ([3]; plasma, po, cat (n = 6), 2 mg/kg BW p.o., single dose, fasted, read-out: Lambda_z (converted)): 4.17e-05 s⁻¹
AUC(0-inf) [3, 7]: 1590 ± 1000 ng·h/mL
AUC(0-t) [3, 7]: 1440 ± 965 ng·h/mL
Cmax [3, 7]: 240 ± 191 ng/mL
Tmax [3, 7]: 1.46 ± 0.51 h
half-life [3, 7]: 5.16 ± 2.3 h
Structure (SMILES): O=C(/C=C\n1cnc(-c2cc(C(F)(F)F)cc(C(F)(F)F)c2)n1)NNc1ccccn1 [KPT-335]
average T1/2 [1, 5]: 5 h
average Tmax [1, 5]: 5.3 h
AUClast (AUC) ([1]; 1.25 mg/kg BW p.o.): 1576.5 ng·h/mL
HL_Lambda_z ([1]; 1.25 mg/kg BW p.o.): 5 h
Tmax ([1]; 1.25 mg/kg BW p.o.): 5.3 h
AUClast (AUC) ([1]; 1.5 mg/kg BW p.o.): 2346.8 ng·h/mL
HL_Lambda_z ([1]; 1.5 mg/kg BW p.o.): 5 h
Tmax ([1]; 1.5 mg/kg BW p.o.): 5.3 h
AUCINF_obs [4]: 1810 ± 216 ng·h/mL
AUClast (AUC0-t) [4]: 1760 ± 223 ng·h/mL
Cmax [4]: 253 ± 88.3 ng/mL
HL_Lambda_z (T1/2) [4]: 3.88 ± 1.47 h
Tmax [4]: 3.83 ± 2.71 h
